The source made the active and inactive calls.
Assays:
[1] = molecular target: T1, High affinity choline transporter 1 (Homo sapiens, UniProt Q9GZV3); experiment: CHT inhibitors, dose response, cell-based, 5-point CRC, membrane potential dye (AID 504840); type: functional
T1 sequence (Q9GZV3 whole entry): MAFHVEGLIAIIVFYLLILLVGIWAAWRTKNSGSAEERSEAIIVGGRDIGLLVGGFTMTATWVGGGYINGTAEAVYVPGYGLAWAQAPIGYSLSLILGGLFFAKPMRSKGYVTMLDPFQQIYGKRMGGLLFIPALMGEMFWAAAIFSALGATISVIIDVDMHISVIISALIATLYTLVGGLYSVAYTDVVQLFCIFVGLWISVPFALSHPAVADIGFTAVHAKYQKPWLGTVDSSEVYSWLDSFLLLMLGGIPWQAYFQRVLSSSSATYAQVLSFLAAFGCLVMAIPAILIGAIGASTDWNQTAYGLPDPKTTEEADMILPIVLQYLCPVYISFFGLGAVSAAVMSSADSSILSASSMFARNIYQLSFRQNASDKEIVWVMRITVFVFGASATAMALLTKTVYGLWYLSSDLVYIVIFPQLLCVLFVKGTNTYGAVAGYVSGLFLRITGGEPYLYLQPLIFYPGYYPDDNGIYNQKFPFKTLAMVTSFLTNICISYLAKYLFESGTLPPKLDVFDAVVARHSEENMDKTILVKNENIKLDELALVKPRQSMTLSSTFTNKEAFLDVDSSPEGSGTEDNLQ

cells [2] = type: functional, cell-based
[3] = molecular target: T2, Nuclear receptor subfamily 0 group B member 1 (Homo sapiens, UniProt P51843); type: functional, cell-based;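 further: HEK293T cells transfected with SF-1 and DAX-1 plus StAR promoter luciferase reporter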
T2 sequence (P51843 whole entry): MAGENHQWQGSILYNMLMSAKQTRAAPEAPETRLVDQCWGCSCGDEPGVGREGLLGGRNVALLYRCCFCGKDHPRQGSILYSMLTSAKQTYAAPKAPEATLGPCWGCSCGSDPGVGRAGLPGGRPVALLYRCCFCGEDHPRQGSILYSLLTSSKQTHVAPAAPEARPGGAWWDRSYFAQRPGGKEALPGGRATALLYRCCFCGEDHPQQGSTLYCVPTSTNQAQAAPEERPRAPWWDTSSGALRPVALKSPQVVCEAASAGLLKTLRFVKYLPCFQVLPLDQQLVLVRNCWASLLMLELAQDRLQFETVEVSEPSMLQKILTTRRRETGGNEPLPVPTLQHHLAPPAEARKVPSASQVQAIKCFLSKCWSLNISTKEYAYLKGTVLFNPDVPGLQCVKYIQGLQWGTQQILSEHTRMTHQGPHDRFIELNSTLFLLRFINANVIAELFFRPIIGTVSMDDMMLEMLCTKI

cells [4] = type: functional, cell-based; remark: listed apart in the source
cells [5] = type: functional, cell-based; remark: listed apart in the source
[6] = HepG2 cell cytotoxicity, dose response, cytotoxicity control, ATP luminescence, cherry-pick, activator set 2 (AID 1053143); type: functional, cell-based
[7] = molecular target: T3, Mannose-6-phosphate isomerase (Homo sapiens, UniProt P34949); experiment: human PMI inhibitors, high substrate, primary screen, biochemical, fluorescence intensity, high mannose 6-phosphate (AID 1220)
T3 sequence (P34949 whole entry): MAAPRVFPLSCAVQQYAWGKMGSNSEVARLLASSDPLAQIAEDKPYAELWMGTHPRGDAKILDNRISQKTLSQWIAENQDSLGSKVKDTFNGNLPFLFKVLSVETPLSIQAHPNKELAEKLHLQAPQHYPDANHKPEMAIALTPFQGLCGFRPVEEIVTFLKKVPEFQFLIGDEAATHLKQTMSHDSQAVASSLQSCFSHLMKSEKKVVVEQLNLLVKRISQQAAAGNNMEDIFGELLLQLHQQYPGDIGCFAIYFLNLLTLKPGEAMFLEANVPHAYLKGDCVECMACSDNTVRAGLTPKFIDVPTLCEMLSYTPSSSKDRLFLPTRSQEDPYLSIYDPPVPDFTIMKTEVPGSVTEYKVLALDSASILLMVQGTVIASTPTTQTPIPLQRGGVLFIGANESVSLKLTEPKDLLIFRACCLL

[8] = molecular target: T4, Replicative DNA helicase DnaB (Mycobacterium tuberculosis, UniProt P9WMR3); experiment: DnaB intein splicing inhibitors, dose response, biochemical, cell-free fluorescence (AID 449749); type: functional
T4 sequence (P9WMR3 whole entry): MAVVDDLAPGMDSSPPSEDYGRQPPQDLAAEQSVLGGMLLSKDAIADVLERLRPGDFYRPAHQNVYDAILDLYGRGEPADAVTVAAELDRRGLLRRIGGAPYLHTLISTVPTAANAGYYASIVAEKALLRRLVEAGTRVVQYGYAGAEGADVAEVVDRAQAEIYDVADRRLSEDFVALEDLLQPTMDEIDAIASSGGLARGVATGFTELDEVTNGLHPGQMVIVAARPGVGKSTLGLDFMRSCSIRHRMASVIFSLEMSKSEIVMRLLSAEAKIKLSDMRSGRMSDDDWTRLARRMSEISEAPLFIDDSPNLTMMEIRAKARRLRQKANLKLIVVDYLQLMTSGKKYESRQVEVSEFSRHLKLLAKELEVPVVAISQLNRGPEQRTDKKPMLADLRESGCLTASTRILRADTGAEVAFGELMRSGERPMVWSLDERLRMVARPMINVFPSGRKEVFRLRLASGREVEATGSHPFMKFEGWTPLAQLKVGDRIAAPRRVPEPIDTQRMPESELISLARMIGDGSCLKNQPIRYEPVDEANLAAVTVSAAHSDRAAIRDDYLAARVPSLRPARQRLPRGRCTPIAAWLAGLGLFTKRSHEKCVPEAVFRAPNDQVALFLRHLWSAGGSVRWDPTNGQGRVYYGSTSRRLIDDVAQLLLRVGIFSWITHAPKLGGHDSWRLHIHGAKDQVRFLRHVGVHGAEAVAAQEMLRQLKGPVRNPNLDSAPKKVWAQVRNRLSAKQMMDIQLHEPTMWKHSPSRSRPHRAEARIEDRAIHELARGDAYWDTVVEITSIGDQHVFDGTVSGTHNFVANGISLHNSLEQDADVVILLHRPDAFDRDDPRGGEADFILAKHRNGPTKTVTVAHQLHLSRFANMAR

Protein RecA = molecular target: T5, Protein RecA (Mycobacterium tuberculosis, UniProt P9WHJ3); experiment: Fluorescence Cell-Free Homogeneous Dose Retest to Identify Inhibitors of RecA-Intein Splicing Activity. [Related pubchem assays (depositor defined):AID2097, AID2223, AID489010, AID492950]; type: functional
T5 sequence (P9WHJ3 whole entry): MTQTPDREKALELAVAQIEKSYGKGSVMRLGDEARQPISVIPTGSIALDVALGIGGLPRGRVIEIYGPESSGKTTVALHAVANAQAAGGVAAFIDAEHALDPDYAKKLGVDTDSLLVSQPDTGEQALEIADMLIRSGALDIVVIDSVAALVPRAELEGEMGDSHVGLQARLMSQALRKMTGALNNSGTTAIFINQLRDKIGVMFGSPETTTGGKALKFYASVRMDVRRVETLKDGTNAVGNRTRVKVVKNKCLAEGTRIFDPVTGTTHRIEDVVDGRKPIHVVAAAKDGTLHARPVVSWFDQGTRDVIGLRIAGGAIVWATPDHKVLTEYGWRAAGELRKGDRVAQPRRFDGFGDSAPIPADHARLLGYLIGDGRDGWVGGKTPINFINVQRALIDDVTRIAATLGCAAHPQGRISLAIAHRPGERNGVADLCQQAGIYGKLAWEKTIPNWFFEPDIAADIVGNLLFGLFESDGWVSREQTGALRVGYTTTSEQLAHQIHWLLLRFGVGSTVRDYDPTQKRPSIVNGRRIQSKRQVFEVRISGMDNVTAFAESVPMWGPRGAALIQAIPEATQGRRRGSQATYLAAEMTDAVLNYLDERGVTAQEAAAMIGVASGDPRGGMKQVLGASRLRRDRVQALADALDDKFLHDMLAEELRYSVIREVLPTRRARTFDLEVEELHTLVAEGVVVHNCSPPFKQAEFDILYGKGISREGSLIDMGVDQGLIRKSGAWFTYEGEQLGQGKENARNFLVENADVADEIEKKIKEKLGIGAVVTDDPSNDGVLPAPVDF

[9] = molecular target: T6, Sentrin-specific protease 8 (Homo sapiens, UniProt Q96LD8); type: functional
T6 sequence (Q96LD8 whole entry): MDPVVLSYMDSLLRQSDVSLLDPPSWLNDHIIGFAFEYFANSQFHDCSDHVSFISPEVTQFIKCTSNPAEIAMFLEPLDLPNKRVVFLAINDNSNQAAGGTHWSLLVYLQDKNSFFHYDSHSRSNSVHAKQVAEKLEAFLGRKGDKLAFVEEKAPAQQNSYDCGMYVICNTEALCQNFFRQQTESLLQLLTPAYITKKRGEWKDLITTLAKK

[10] = molecular target: T6, Sentrin-specific protease 8; type: functional; remark: listed apart in the source
Caspase-3 = molecular target: T7, Caspase-3 (Homo sapiens, UniProt P42574); experiment: Dose-response confirmation of uHTS inhibitor hits of Sentrin-Specific Protease 8 in a Caspase-3 Fluorescence assay.; type: functional
T7 sequence (P42574 whole entry): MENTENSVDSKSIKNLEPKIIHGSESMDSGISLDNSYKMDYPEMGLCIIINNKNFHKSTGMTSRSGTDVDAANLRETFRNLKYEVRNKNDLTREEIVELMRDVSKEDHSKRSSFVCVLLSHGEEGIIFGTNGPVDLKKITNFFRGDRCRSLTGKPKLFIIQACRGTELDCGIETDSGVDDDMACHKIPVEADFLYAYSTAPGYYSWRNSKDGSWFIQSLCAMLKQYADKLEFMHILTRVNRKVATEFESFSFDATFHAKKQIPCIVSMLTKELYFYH

[11] = cytotoxicity in HPDE-C7 cells, cell-based, fluorescence, HTS (AID 430); type: functional; settings: Homo sapiens
[12] = cytotoxicity in KRAS-transformed pancreatic duct cells, primary screen, cell-based, fluorescence, HTS (AID 431); type: functional; settings: Homo sapiens;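 further: cell line used: HPDE-C7K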
Galanin receptor type 3 = Galanin receptor type 3 (Homo sapiens, UniProt O60755); experiment: Fluorescence-based cell-based primary high throughput dose response assay to identify antagonists of the Galanin Receptor 3 (GalR3).; type: functional
cells [13] = type: functional, cell-based; settings: HEK-CNG
[14] = molecular target: 1-phosphatidylinositol 4,5-bisphosphate phosphodiesterase gamma-1 (Homo sapiens, UniProt P19174); experiment: Counterscreen for inhibitors of phospholipase C isozymes (PLC-B3): Fluorescence-based biochemical high throughput dose response assay to identify inhibitors of phospholipase C isozymes (PLC-gamma1).
[15] = molecular target: 1-phosphatidylinositol 4,5-bisphosphate phosphodiesterase beta-3 (Homo sapiens, UniProt Q01970); experiment: Fluorescence-based biochemical high throughput dose response assay to identify inhibitors of phospholipase C isozymes (PLC-B3).
Paired box protein Pax-8 = Paired box protein Pax-8 (Homo sapiens, UniProt Q06710); experiment: inhibitors of PAX8-driven TPO luciferase reporter, dose response, RMG-I cells, cherry-pick (AID 687027); type: functional, cell-based;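 further: luciferase reporter driven by Pax8 target thyroperoxidase promoter measured by SteadyGlo luminescence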
[16] = non-specific cell cytotoxicity, dose response, cytotoxicity control for PAX8 inhibitor project, plate reader, dry powder samples (AID 743021); type: functional, cell-based
[17] = molecular target: Disintegrin and metalloproteinase domain-containing protein 17 (Homo sapiens, UniProt P78536); experiment: exosite inhibitors of ADAM17, dose response, biochemical (AID 743260)
[18] = ADAM10 protease inhibitors, dose response, selectivity assay for ADAM17 exosite inhibitor project, biochemical, FRET peptide substrate, recombinant human ADAM10 (AID 743259);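 further: ADAM10 enzyme cleaving a FRET peptide substrate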
[19] = T. cruzi growth inhibition in host cells, dose response, cell-based, plate reader, dry powder, set 2 (AID 652275); type: functional
[20] = MITF Orthogonal Assay: SK-MEL-5 CTG Assay Measured in Cell-Based System Using Plate Reader - 2084-02_Inhibitor_Dose_DryPowder_Activity_Set7.; type: functional
[21] = MITF: Counter assay: A375 proliferation Measured in Cell-Based System Using Plate Reader - 2084-03_Inhibitor_Dose_DryPowder_Activity_Set8.; type: functional; settings: A-375
[22] = TRPM1 promoter luciferase reporter signal decrease, dose response, MITF inhibitor project, cell-based, SK-MEL-5, dry powder, set 8 (AID 624430); type: functional

Sequence of Disintegrin and metalloproteinase domain-containing protein 17 (P78536 whole entry, the tested form may be a part): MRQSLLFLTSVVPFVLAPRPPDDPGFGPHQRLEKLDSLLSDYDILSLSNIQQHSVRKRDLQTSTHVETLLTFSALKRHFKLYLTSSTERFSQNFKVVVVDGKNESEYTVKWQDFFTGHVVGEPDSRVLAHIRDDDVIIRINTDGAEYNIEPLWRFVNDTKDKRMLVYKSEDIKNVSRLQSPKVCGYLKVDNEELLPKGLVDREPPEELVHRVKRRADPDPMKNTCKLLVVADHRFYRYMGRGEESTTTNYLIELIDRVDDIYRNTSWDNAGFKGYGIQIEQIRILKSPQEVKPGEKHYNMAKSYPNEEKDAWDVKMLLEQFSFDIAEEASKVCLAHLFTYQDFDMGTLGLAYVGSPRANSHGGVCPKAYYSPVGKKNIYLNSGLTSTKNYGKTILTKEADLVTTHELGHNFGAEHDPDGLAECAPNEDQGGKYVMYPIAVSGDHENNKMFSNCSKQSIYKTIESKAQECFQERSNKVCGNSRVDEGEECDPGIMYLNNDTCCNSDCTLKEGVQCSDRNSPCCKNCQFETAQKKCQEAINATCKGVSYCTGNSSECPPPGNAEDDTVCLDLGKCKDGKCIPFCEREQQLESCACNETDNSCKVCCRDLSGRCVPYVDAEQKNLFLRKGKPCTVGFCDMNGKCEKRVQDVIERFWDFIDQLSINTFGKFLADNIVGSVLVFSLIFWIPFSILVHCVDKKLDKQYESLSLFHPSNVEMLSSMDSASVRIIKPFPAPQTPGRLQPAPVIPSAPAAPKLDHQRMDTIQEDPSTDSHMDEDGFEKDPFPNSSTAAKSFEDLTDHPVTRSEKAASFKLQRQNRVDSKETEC
Sequence of Galanin receptor type 3 (O60755 whole entry): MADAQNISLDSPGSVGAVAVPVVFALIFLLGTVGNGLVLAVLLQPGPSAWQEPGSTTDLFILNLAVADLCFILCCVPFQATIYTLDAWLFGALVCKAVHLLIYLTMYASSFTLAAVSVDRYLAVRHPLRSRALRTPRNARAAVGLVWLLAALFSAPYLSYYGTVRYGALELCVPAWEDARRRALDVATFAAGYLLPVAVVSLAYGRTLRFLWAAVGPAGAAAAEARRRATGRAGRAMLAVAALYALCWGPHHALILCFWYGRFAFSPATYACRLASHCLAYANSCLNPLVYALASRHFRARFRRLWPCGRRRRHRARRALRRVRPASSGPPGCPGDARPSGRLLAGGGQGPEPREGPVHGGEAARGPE
Sequence of 1-phosphatidylinositol 4,5-bisphosphate phosphodiesterase beta-3 (Q01970 whole entry): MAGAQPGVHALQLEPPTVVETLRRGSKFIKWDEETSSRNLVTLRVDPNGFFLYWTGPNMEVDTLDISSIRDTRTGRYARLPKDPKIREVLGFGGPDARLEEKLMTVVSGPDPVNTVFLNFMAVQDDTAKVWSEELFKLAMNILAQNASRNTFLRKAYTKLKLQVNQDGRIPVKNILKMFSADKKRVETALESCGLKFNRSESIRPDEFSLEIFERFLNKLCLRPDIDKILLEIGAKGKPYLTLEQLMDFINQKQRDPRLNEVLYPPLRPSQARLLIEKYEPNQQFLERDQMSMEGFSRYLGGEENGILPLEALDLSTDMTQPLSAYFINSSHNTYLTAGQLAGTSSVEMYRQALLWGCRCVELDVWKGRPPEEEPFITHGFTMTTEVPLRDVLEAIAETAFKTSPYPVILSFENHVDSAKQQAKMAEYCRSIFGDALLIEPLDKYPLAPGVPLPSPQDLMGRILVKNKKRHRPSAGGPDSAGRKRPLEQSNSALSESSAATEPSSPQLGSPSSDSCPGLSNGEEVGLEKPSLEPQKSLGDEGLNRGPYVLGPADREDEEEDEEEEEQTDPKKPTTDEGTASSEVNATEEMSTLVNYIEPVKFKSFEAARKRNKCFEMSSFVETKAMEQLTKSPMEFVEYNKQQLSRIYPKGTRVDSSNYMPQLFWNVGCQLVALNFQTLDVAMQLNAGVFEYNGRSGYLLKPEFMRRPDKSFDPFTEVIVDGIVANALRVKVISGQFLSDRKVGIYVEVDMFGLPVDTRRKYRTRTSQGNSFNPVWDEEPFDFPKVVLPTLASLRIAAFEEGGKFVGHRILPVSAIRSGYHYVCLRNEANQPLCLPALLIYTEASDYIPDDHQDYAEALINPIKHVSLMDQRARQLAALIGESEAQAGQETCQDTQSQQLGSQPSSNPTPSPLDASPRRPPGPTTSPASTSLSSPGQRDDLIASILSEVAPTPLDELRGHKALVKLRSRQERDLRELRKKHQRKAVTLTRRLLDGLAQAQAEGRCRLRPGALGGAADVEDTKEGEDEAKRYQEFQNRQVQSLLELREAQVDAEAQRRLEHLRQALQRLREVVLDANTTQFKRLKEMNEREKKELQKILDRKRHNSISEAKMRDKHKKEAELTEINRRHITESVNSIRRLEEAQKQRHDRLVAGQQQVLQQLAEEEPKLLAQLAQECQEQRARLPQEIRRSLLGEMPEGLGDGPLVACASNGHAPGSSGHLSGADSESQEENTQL
Sequence of Paired box protein Pax-8 (Q06710 whole entry): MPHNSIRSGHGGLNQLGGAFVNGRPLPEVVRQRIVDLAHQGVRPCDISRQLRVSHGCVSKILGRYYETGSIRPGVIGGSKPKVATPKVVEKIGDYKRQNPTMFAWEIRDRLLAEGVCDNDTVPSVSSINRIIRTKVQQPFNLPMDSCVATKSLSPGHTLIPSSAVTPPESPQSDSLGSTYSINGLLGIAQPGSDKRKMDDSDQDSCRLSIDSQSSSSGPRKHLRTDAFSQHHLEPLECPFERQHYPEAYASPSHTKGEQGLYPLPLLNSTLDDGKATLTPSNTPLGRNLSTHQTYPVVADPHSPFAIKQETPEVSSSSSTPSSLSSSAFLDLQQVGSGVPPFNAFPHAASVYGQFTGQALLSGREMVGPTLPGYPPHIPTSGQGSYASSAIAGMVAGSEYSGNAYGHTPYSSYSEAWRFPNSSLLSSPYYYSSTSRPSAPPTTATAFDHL
Sequence of 1-phosphatidylinositol 4,5-bisphosphate phosphodiesterase gamma-1 (P19174 whole entry): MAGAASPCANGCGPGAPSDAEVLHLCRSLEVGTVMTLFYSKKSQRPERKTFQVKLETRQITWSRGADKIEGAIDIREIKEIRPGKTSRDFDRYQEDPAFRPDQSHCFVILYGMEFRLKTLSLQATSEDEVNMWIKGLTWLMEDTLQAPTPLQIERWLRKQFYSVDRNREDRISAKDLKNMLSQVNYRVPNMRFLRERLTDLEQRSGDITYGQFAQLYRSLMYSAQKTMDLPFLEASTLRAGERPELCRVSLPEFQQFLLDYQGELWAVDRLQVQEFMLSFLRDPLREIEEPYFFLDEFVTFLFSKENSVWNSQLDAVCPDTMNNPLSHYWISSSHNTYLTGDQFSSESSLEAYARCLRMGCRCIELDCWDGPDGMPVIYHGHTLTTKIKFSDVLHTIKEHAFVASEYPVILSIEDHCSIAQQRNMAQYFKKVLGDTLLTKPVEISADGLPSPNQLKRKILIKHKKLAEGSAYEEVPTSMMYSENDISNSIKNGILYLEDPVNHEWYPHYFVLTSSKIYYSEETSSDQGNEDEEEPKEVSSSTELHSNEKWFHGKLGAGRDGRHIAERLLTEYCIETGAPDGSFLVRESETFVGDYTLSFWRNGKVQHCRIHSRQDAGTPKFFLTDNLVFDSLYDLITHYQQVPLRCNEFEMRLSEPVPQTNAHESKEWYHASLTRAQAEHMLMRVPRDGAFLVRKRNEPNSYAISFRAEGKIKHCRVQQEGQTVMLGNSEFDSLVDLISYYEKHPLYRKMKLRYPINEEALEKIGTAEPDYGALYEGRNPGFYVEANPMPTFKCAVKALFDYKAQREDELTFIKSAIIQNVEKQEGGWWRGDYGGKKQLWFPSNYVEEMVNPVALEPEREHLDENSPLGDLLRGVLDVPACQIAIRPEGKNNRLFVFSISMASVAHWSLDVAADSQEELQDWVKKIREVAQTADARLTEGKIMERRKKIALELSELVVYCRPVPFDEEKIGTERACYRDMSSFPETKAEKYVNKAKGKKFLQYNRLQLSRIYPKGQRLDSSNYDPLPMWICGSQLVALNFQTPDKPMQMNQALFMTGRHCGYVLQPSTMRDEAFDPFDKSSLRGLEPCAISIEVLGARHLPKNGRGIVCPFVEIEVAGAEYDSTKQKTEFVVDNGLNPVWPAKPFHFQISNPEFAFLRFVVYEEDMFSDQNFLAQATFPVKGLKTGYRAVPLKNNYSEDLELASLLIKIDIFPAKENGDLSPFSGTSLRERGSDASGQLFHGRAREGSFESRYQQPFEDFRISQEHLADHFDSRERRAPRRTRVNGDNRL

COc1ccccc1Nc1nnc(SCC2CCCCO2)s1 (configuration not stated)
IC50 [1]: 4.17 µM (active) | IC50 (cells [2]): > 67.5 µM (inactive) | IC50 [3]: > 0.834 µM (active)

O=C(Nc1nnc(SCc2ccccc2F)s1)C1=COCCO1
IC50 (cells [2]): > 67.6 µM (inactive) | IC50 [3]: > 67.6 µM (inactive)

COc1ccc2nc(NC(=O)c3cccs3)sc2c1
EC50 (cells [4]): > 350 µM (not active) | EC50 (cells [5]): 7.18 µM (active) | AC50 [6]: 26 µM (active)

NC(=O)c1ccc(NC(=O)C#Cc2ccccc2)cc1
AC50 [6]: 26 µM (active)

CCOC(=O)c1nn(-c2ccccc2C)c(=O)c2c(N)scc12
IC50 [7]: > 50 µM (not active) | AC50 [8]: > 120 µM (inactive) | EC50 (Protein RecA): 11.4 µM (active) | IC50 [9]: 4.12 µM (active) | IC50 [10]: 17.3 µM (active) | IC50 (Caspase-3): 93.3 µM (inactive)

CCn1c2ccccc2c2cc(C3C(C#N)=C(N)Oc4[nH]nc(COC)c43)ccc21 (configuration not stated)
EC50 [11]: 7.03 µM (active) | EC50 [12]: 7.72 µM (active) | AC50 [8]: > 380 µM (inconclusive) | EC50 (Protein RecA): 2.7 µM (active) | IC50 (Galanin receptor type 3): > 29.9 µM (inactive) | EC50 (cells [13]): > 29.9 µM (inactive)

Fc1ccc(-c2cc(-c3cccs3)cc(-c3ccccc3)n2)cc1
IC50 [14]: > 123 µM (inactive) | IC50 [15]: > 123 µM (inactive)

COc1ccc(-c2cc(CNc3nc(NC(C)C)nc4cc(-c5ccccc5)sc34)on2)cc1
AC50 (Paired box protein Pax-8): 9.84 µM (active) | AC50 [16]: 18.8 µM (active)

CC(C)c1cccc(-c2csc(C(O)c3cccc(Cl)c3)n2)c1 (configuration not stated)
IC50 [17]: > 69.5 µM (inactive) | IC50 [18]: 42.8 µM (inactive)

COc1cccc(C(Nc2ccccc2)c2ccc3ccc(C)nc3c2O)c1 (configuration not stated)
IC50 [17]: > 69.2 µM (inactive) | IC50 [18]: 18.5 µM (inactive)

CC(C)N1CC2(CN(Cc3cccc(F)c3)C2)Oc2c(NC(=O)c3ccncc3)cccc2C1=O
AC50 [19]: 0.41 µM (active)

CC(C)N1CCN(C2=C(Nc3ccc(I)cc3)C(=O)c3ccccc3C2=O)CC1
AC50 [20]: 10.8 µM (active) | AC50 [21]: 33.9 µM (active) | AC50 [22]: 2.96 µM (active)

CC(C)N1CCN(C2=C(Nc3ccc(Cl)c(Cl)c3)C(=O)c3ccccc3C2=O)CC1
AC50 [20]: 8.71 µM (active) | AC50 [21]: 19.4 µM (active) | AC50 [22]: 3.21 µM (active)

CN(C)C(=O)c1cccc(-c2ccc([C@H]3[C@@H](CO)N4CCCCN(C(=O)C5CCC5)C[C@H]34)cc2)c1
AC50 [19]: 1.29 µM (active)
